Measured values from article PMC6488665 (2019).

Test system: kdp c-di-AMP riboswitch transcript (5'-UTR of kdpFABC, run-off from -88 to +363 template) (RNA, riboswitch) AUAAAUCAUUCAUAAAAUUUCCAAAAAAACCUAAAAUCGCUGAGUUCCAGAAAUGGAGCGGGGGAACCAAUUUUGUGCAUCGUCACUUGGGGUGAAUCUUUCAGUUUUGAAAGUAGGGCUACUCUUUAGGCCCGAAUCCGACAGCUAACCUCGUAAGCGUUUAGAGAGGAGGUUUACUUUUUGUUGUUCAUUUUUUGAACACUGAGUAGAGCUCAGUGUUCUUUUUUAAUAUUUAAAUGGUAAAUUUUAACAAAAAAGAGGGGAUAGUUAUGUUAGAUGUUGUAAUGGUCGGGAUUUUUAUUUUAUUAGUUGCAUCGAUGGCAAGUCUUGCAAGUUGGUCAGAUAAAGUUGUGAAAGAAGGA
Assay: in vitro transcription termination (E. coli RNA polymerase), gel
Conditions: 150 mM KCl, 10 mM MgCl2; 40 mM Tris-HCl pH 7.5, 37 °C; c-di-AMP 0-5 µM; termination rises 27% to 63%; functional, no constant

With Nc1ncnc2c1ncn2[C@@H]1O[C@@H]2COP(=O)(O)O[C@H]3[C@@H](O)[C@H](n4cnc5c(N)ncnc54)O[C@@H]3COP(=O)(O)O[C@H]2[C@H]1O the binding was “yes”.
